Experimental data as given in ChEMBL document CHEMBL4725370, “Discovery of Proteolysis-Targeting Chimera Molecules that Selectively Degrade the IRAK3 Pseudokinase” (J Med Chem, 2020).
Active and inactive are the calls of the source. No cut-off for these calls is given here.

How the values were obtained:
[1] = target: Protein cereblon/Interleukin-1 receptor-associated kinase 4 (Homo sapiens) (UniProt Q9NWZ3+Q96SW2); assay: Protac activity at CRBN/IRAK4 in LPS-induced human THP1 cells assessed as induction of IRAK4 degradation at 0.1 uM measured after 6 hrs by HPLC-MS based global proteomic analysis; format: cell-based; conditions: THP-1
Chain of Protein cereblon/Interleukin-1 receptor-associated kinase 4 (Homo sapiens) (Q96SW2 whole entry, looked up): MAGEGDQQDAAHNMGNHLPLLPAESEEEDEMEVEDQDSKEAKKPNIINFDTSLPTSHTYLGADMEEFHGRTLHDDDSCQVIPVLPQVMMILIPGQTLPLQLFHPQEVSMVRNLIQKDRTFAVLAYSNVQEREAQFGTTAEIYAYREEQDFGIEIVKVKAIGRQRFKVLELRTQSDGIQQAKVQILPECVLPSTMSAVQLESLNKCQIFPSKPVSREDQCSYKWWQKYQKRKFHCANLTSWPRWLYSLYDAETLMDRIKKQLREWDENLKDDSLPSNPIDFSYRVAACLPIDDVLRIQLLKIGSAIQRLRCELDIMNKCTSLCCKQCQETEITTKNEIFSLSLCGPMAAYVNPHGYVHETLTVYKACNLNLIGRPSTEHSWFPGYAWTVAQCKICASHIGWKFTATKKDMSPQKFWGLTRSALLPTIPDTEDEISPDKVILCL
Chain of Protein cereblon/Interleukin-1 receptor-associated kinase 4 (Homo sapiens) (Q9NWZ3 whole entry, looked up): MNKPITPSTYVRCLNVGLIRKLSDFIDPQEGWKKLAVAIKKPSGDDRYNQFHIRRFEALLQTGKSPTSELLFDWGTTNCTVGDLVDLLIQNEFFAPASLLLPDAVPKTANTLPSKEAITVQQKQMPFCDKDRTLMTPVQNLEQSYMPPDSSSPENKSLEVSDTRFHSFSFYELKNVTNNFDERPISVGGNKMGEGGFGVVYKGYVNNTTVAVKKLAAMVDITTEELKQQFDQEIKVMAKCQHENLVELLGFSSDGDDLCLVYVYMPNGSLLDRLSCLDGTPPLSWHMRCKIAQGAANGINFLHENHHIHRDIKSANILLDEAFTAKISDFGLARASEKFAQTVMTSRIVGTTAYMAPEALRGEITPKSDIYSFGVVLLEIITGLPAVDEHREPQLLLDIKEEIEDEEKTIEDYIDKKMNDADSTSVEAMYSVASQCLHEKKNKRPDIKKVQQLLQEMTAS

[2] = target: Protein cereblon/Interleukin-1 receptor-associated kinase 1 (Homo sapiens) (UniProt P51617+Q96SW2); assay: Protac activity at CRBN/IRAK1 in LPS-induced human THP1 cells assessed as induction of IRAK1 degradation at 0.1 uM measured after 6 hrs by HPLC-MS based global proteomic analysis; format: cell-based; conditions: THP-1
Chain of Protein cereblon/Interleukin-1 receptor-associated kinase 1 (Homo sapiens) (P51617 whole entry, looked up): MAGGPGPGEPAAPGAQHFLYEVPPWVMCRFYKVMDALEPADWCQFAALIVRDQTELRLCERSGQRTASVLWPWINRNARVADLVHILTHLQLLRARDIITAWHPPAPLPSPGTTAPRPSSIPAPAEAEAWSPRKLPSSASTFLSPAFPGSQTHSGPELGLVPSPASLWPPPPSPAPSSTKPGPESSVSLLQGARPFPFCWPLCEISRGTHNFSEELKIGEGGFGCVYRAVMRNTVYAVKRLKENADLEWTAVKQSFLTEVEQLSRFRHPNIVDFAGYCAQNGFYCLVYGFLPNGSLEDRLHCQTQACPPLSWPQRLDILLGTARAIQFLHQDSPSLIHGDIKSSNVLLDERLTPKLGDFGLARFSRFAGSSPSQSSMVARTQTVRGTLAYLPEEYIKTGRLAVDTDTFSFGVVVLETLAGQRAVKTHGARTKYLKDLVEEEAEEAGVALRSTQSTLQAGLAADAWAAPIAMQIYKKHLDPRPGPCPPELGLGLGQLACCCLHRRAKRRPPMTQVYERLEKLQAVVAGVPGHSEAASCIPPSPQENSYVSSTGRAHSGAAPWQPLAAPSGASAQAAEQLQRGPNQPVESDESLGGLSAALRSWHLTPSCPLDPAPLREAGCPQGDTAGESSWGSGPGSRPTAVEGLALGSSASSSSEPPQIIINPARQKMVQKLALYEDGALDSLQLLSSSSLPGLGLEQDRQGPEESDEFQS
Chain of Protein cereblon/Interleukin-1 receptor-associated kinase 1 (Homo sapiens) (Q96SW2 whole entry, looked up): as the sequence (Q96SW2 whole entry, looked up) above

- Activity [1]: inactive
- Activity [2]: inactive
Compound: CC(C)c1ccn2ncnc(N[C@H]3CC[C@@H](N4CCN(C(=O)CCC(=O)N5CCC(CCN6CCN(c7ccc8c(c7)C(=O)N(C7CCC(=O)NC7=O)C8=O)CC6)CC5)CC4)CC3)c12 (some centres not stated)
